{
  "source": "paper PMC12040275",
  "about": "“Fusaric acid-mediated S-glutathionylation of MaAKT1 channel confers the virulence of Foc TR4 to banana” (PLOS Pathogens, 2025)",
  "key": {"MaAKT1 [1]": {"target": "T1, MaAKT1 (Musa acuminata, UniProt A0A804HWY8)", "T1 construct": "synthesized cDNA in pcDNA 6/His A, expressed in HEK-293 cells; patch-clamp", "T1 sequence (A0A804HWY8 1-891)": "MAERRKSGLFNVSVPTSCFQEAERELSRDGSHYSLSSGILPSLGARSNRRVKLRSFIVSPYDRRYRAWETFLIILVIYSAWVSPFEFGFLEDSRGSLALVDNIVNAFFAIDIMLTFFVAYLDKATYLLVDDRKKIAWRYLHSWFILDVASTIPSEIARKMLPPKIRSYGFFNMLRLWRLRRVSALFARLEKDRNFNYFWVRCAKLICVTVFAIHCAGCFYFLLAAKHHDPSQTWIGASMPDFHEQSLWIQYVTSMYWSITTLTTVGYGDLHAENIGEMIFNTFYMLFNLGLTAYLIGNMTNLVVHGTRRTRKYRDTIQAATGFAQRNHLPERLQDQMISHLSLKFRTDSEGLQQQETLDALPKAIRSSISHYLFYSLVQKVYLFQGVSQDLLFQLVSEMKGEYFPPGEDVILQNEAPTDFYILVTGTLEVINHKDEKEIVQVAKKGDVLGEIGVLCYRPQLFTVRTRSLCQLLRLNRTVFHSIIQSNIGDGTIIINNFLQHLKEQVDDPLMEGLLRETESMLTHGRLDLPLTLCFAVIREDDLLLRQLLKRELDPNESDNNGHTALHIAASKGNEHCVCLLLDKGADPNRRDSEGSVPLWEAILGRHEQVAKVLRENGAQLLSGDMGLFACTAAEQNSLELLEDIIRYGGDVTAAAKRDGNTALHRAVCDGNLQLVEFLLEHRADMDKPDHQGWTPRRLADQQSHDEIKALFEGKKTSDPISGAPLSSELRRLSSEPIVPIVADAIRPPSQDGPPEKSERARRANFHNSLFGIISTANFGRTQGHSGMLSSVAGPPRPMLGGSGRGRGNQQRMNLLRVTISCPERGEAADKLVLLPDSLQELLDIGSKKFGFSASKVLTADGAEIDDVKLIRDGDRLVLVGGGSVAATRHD", "assay": "patch clamp, giant inside-out patches from HEK-293", "type": "biochemical", "conditions": "covalent (cysteine thiol oxidation); applied to cytosolic side; -194 mV"}, "MaAKT1 [2]": {"target": "T1, MaAKT1", "assay": "whole-cell patch clamp, HEK-293", "type": "cell-based", "conditions": "HEK293"}},
  "data": [
    {"smiles": "O=C(O)c1cc(SSc2ccc([N+](=O)[O-])c(C(=O)O)c2)ccc1[N+](=O)[O-]", "note": "[DTNB, 5,5-dithiobis-2-nitrobenzoic acid]", "values": [
      {"measurement": "patch clamp, giant inside-out patches from HEK-293", "setting": "MaAKT1 [1]", "value": "low concentration of DTNB significantly inhibited MaAKT1"}
    ]},
    {"smiles": "O=[N+]([O-])c1ccc(SSc2ccc([N+](=O)[O-])cn2)nc1", "note": "[DTNP, 2,2’-dithiobis-5-nitropyridine]", "values": [
      {"measurement": "inhibition at 50 µM", "setting": "MaAKT1 [2]", "value": "60 ± 9.89", "unit": "%"}
    ]},
    {"smiles": "c1ccc(SSc2ccccn2)nc1", "note": "[2-DTP, 2,2-Dithiodipyridine]", "values": [
      {"measurement": "inhibition at 50 µM", "setting": "MaAKT1 [2]", "value": "61.5 ± 6.66", "unit": "%"}
    ]}
  ]
}
